The supplement of paper PMC11061612

Assays:
Assay in all cases: combination Emax (second highest fraction inhibited in the dose matrix, 72 h); higher = more inhibition; extreme values may be limits of the assay
[1] = tested on: AN3-CA (Endometrial Carcinoma)
How it was run: (§1)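 Cell lines in DMEM/F12 or RPMI with 10% FBS were plated in 1536-well plates, held 24 hours at 37°C, 5% CO2, then given two-drug dose matrices for 72 hours (DMSO typically 0.2%). Viability was read by CellTiter-Glo 2.0 luminescence and scaled as inhibition from 0 (vehicle wells) to 1 (blank wells). Combination Emax is the second-highest inhibition in the matrix; Bliss excess is observed combination effect minus expected EA + EB − EA·EB, EA and EB being single-agent effects.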

[2] = tested on: EB-3 (Burkitt's Lymphoma)
How it was run: as §1

CHL-1 (Melanoma) = tested on: CHL-1 (Melanoma)
How it was run: as §1

[3] = tested on: FLO-1 (Esophageal Adenocarcinoma)
How it was run: as §1

[4] = tested on: BALL-1 (B-Lymphoblastic Leukemia)
How it was run: as §1

[5] = tested on: NCI-H196 (Small Cell Lung Carcinoma)
How it was run: as §1

786-0 (Kidney Carcinoma) = tested on: 786-0 (Kidney Carcinoma)
How it was run: as §1

KYM-1 (Rhabdomyosarcoma) = tested on: KYM-1 (Rhabdomyosarcoma)
How it was run: as §1

[6] = tested on: NCI-H810 (Non-Small Cell Lung Carcinoma)
How it was run: as §1

[7] = tested on: SK-MM-2 (Plasma Cell Myeloma)
How it was run: as §1

[8] = tested on: COLO-684 (Endometrial Carcinoma)
How it was run: as §1

[9] = tested on: Calu-6 (Non-Small Cell Lung Carcinoma)
How it was run: as §1

[10] = tested on: NCI-H1755 (Lung Adenocarcinoma)
How it was run: as §1

[11] = tested on: OCI-AML5 (Acute Myeloid Leukemia)
How it was run: as §1

[12] = tested on: NCI-H1563 (Lung Adenocarcinoma)
How it was run: as §1

[13] = tested on: NKM-1 (Acute Myeloid Leukemia)
How it was run: as §1

[14] = tested on: HTC-C3 (Thyroid Gland Carcinoma)
How it was run: as §1

[15] = tested on: SNU-175 (Colorectal Carcinoma)
How it was run: as §1

ES-2 (Ovarian Carcinoma) = tested on: ES-2 (Ovarian Carcinoma)
How it was run: as §1

[16] = tested on: LOUCY (T-Lymphoblastic Leukemia)
How it was run: as §1

Row | SMILES | combination Emax [1] | combination Emax [2] | combination Emax (CHL-1 (Melanoma)) | combination Emax [3] | combination Emax [4] | combination Emax [5] | combination Emax (786-0 (Kidney Carcinoma)) | combination Emax (KYM-1 (Rhabdomyosarcoma)) | combination Emax [6] | combination Emax [7] | combination Emax [8] | combination Emax [9] | combination Emax [10] | combination Emax [11] | combination Emax [12] | combination Emax [13] | combination Emax [14] | combination Emax [15] | combination Emax (ES-2 (Ovarian Carcinoma)) | combination Emax [16]
1 | COc1cccc(OCCCN)c1-c1cc(Nc2cnc(C#N)cn2)n[nH]1 [Prexasertib] + O=C(c1cc(Cc2n[nH]c(=O)c3ccccc23)ccc1F)N1CCN(C(=O)C2CC2)CC1 [Olaparib] (first compound max 1 µM, 7x7, partner max 10 µM) | 0.81 | 0.694 | 0.838 | 0.677 | 0.994 | 0.556 | 0.869 | 0.855 | 0.896 | 0.656 | 0.707 | 0.698 | 0.907 | 0.991 | 0.27 | 0.902 | 0.751 | 0.527 | 0.788 | 1
2 | COc1cccc(OCCCN)c1-c1cc(Nc2cnc(C#N)cn2)n[nH]1 [Prexasertib] + CN(C)CCCOc1ccc(-c2ccc3ncc4c(c3c2)n(C2CCOCC2)c(=O)n4C)cn1 [AZD0156] (first compound max 1 µM, 7x7, partner max 1 µM) | 0.81 | 0.838 | 0.814 | 0.724 | 0.999 | 0.606 | 0.861 | 0.952 | 0.877 | 0.652 | 0.854 | 0.745 | 0.936 | 1 | 0.352 | 0.956 | 0.768 | 0.632 | 0.863 | 1
3 | CC1(C)CCC(CN2CCN(c3ccc(C(=O)NS(=O)(=O)c4ccc(NCC5CCOCC5)c([N+](=O)[O-])c4)c(Oc4cnc5[nH]ccc5c4)c3)CC2)=C(c2ccc(Cl)cc2)C1 [Venetoclax] + Cn1cnc2c(F)c(Nc3ccc(Br)cc3Cl)c(C(=O)NOCCO)cc21 [Selumetinib] (first compound max 1 µM, 7x7, partner max 3 µM) | 0.204 | 0.154 | 0.0922 | 0.319 | 1 | 0.077 | 0.16 | 0.124 | 0.0631 | 1 | 0.0813 | 0.431 | 0.636 | 1 | 0.242 | 0.975 | 0.508 | 0.313 | 0.366 | 1
4 | CC1(C)CCC(CN2CCN(c3ccc(C(=O)NS(=O)(=O)c4ccc(NCC5CCOCC5)c([N+](=O)[O-])c4)c(Oc4cnc5[nH]ccc5c4)c3)CC2)=C(c2ccc(Cl)cc2)C1 [Venetoclax] + C1CN(CCC1(C(=O)N[C@@H](CCO)C2=CC=C(C=C2)Cl)N)C3=NC=NC4=C3C=CN4 [Capivasertib] (first compound max 1 µM, 7x7, partner max 3 µM) | 0.653 | 0.176 | 0.163 | 0.192 | 1 | 0.198 | 0.37 | 0.0721 | 0.113 | 1 | 0.625 | 0.111 | 0.648 | 0.958 | 0.396 | 1 | 0.163 | 0.162 | 0.14 | 1
5 | Cc1c2c(nn1C)CSCc1cc(n(C)n1)CSc1cc(c3ccccc3c1)OCCCc1c(C(=O)O)n(C)c3c-2c(Cl)ccc13 [AZD5991] + C[C@@H]1COCCN1C2=NC(=NC(=C2)C3(CC3)[S@](=N)(=O)C)C4=C5C=CNC5=NC=C4 [AZD6738] (first compound max 1 µM, 7x7, partner max 10 µM) | 0.823 | 0.604 | 0.906 | 0.686 | 1 | 0.367 | 0.748 | 0.924 | 0.904 | 0.637 | 0.741 | 0.822 | 0.854 | 1 | 0.774 | 0.995 | 0.686 | 0.862 | 0.858 | 0.993
6 | C=CCn1c(=O)c2cnc(Nc3ccc(N4CCN(C)CC4)cc3)nc2n1-c1cccc(C(C)(C)O)n1 [AZD1775] + O=C(c1cc(Cc2n[nH]c(=O)c3ccccc23)ccc1F)N1CCN(C(=O)C2CC2)CC1 [Olaparib] (first compound max 1 µM, partner max 10 µM) | 0.339 | 0.73 | 0.528 | 0.878 | 0.985 | 0.536 | 0.543 | 0.563 | 0.926 | 0.705 | 0.625 | 0.708 | 0.832 | 0.953 | 0.215 | 0.945 | 0.365 | 0.447 | 0.622 | 1
7 | CC(=O)Nc1cccc(-n2c(=O)n(C3CC3)c(=O)c3c(Nc4ccc(I)cc4F)n(C)c(=O)c(C)c32)c1 [Trametinib] + Cc1nc(-c2cn3c(n2)-c2ccc(-c4cnn(C(C)(C)C(N)=O)c4)cc2OCC3)n(C(C)C)n1 [Taselisib] (first compound max 1 µM, 7x7, partner max 10 µM) | 0.997 | 0.373 | 0.638 | 0.665 | 0.532 | 0.376 | 0.613 | 0.4 | 0.121 | 0.43 | 0.57 | 0.987 | 0.978 | 1 | 0.793 | 1 | 0.744 | 0.627 | 0.725 | 0.527
